The values that follow come from patent US20090124645A1, “Novel Pyrimidine-2,4-Diamine Derivatives and their Use as Modulators of Small-Conductance Calcium-Activated Potassium Channels” (NeuroSearch A/S, priority 2005, published 2009).

Structures can show the parent of a compound that is named as a salt.

As to `FC(F)(F)c1cccc(CNc2ccnc(NCc3cccc(C(F)(F)F)c3)n2)c1` (as salt: HCl) [Example 3, N^2,N^4-Bis[3-(trifluoromethyl)benzyl]pyrimidine-2,4-diamine], the melting point (usually the temperature, or range, at which the solid turns liquid) came to 172 °C.
The compound `Clc1ccc(CNc2ccnc(NCc3ccc(Cl)c(Cl)c3)n2)cc1Cl` (as salt: HCl) [Example 4, N^2,N^4-Bis(3,4-dichlorobenzyl)pyrimidine-2,4-diamine] registered a melting point of 167 to 170 °C.
In the case of `CC(Nc1ccnc(NC(C)c2ccc(F)cc2)n1)c1ccc(F)cc1` (stereo not drawn) (as salt: HCl) [Example 5, N^2,N^4-Bis[1-(4-fluorophenyl)ethyl]pyrimidine-2,4-diamine] it was 151 to 154 °C; in that of `Clc1ccc(CNc2ccnc(NCc3ccc(Cl)cc3)n2)cc1` (as salt: HCl) [Example 7, N^2,N^4-Bis(4-chlorobenzyl)pyrimidine-2,4-diamine], 213 to 216 °C.
The compound `Fc1ccc(CCNc2ccnc(NCCc3ccc(F)cc3)n2)cc1` (as salt: HCl) [Example 10, N^2,N^4-Bis[2-(4-fluorophenyl)ethyl]pyrimidine-2,4-diamine] gave a melting point of 177.4 to 179.4 °C.
As for `Clc1ccc(CCNc2ccnc(NCCc3ccc(Cl)cc3)n2)cc1` (as salt: HCl) [Example 11, N^2,N^4-Bis[2-(4-chlorophenyl)ethyl]pyrimidine-2,4-diamine], the melting point fell in the range of 201 to 204 °C.
